Source: publication PMC9137698, “Development of New Antimycobacterial Sulfonyl Hydrazones and 4-Methyl-1,2,3-thiadiazole-Based Hydrazone Derivatives” (Antibiotics, 2022)
Values after ≈ are worked out from the molar mass of the structure shown. Where two headings read alike, the source gives them in different places.

Columns and labels:
[1] = test system: M. tuberculosis strain H37Rv; experiment: EUCAST broth microdilution MIC determination; format: cell-based, Mycobacterium tuberculosis
[2] = test system: HEK-293 (human embryonic kidney 293) cells; experiment: MTT cytotoxicity assay, HEK-293; format: cell-based; conditions: for selectivity indices (SI) / selectivity index SI, HEK-293: ratio of IC50 to MIC; for selectivity indices (SI): both cell lines HEK-293 and CCL-1; for IC50: Homo sapiens
Protocol: (§1) The cytostatic activity of the investigational compounds was determined using a standard MTT-based colorimetric assay for evaluating cell viability. HEK-293 and CCL-1 cells were harvested and seeded (100 µL/well) in 96-well plates at a density of 3 × 10^5. Following a 24 h incubation, the cells were treated with serial dilutions of the tested compounds in the concentration range of 200.0–12.5 µM. Following an exposure time of 72 h, a filter-sterilized MTT substrate solution (5 mg/mL in PBS) was added to each well of the culture plate. A further 1–4 h incubation allowed the formation of purple insoluble precipitates of the formazan dye. The latter was dissolved in an isopropyl alcohol solution containing 5% formic acid for absorbance measurement at 550 nm. The collected absorbance values were blanked against MTT-and isopropanol solution and normalized to the mean value of the untreated control (100% cell viability).
(§2) Semi-logarithmic “dose-response” curves were computed using nonlinear regression in GraphPad Prism® 8.0. The antiproliferative potential of the studied compounds was rated according to the calculated half-maximal inhibitory concentrations (IC50 values).

[3] = test system: CCL-1 mouse fibroblast cell line; experiment: MTT cytotoxicity assay, CCL-1; format: cell-based; conditions: for IC50: Mus musculus; for selectivity index SI, CCL-1: ratio of IC50 to MIC
Protocol: as §1, §2

[4] = Mycobacterium tuberculosis, H37RV, M. tuberculosis strain H37Rv, lowest concentration without visual growth, read-out: MIC a
[5] = CCL-1, 72 h, read-out: IC50 (µM) b CCL-1
[6] = Mycobacterium tuberculosis, H37RV, read-out: MIC a (µM)
[7] = HEK293, 72 h, read-out: IC50 (µM) c HEK-293
[8] = M. tuberculosis strain H37Rv, lowest concentration without visual growth, read-out: MIC a

O=[N+]([O-])c1ccc(/C=N/NS(=O)(=O)c2ccccc2)cc1 [5g, N’-[(E)-(4-nitrophenyl)methylidene]benzenesulfonohydrazide]
MIC [1, 4]: < 0.1 µM
selectivity indices (SI) [2]: > 1000

O=S(=O)(N/N=C/c1c[nH]c2ccc(OCc3ccccc3)cc12)c1ccccc1 [5c]
IC50 [3, 5]: 321 ± 16.2 µM
MIC [1, 6]: 0.343 µM (≈ 0.139 µg/mL)
IC50 [2, 7]: 32.3 ± 1.5 µM

COc1ccc2c(c1)c(/C=N/NC(=O)c1snnc1C)cn2C [3b, N’-[(E)-(5-methoxy-1-methyl-1H-indol-3-yl)methylidene]-4-methyl-1,2,3-thiadiazole-5-carbohydrazide]
MIC [1, 8]: 0.3294 µM (≈ 0.108 µg/mL)
MIC [1, 4]: < 0.4 µM

O=S(=O)(N/N=C/c1c[nH]c2ccc(Cl)cc12)c1ccccc1 [5d, N’-[(E)-(5-chloro-1H-indol-3-yl)methylidene]benzenesulfonohydrazide]
MIC [1, 4]: 0.167 µM (≈ 0.0557 µg/mL)

COc1cc(/C=N/NC(=O)c2snnc2C)ccc1O [3d, N’-[(E)-(4-hydroxy-3-methoxyphenyl)methylidene]-4-methyl-1,2,3-thiadiazole-5-carbohydrazide]
IC50 ([3]; Fibroblast, MTT, as assigned in running text, read-out: IC50, mouse fibroblast cells CCL-1): 218 µM
selectivity index SI, CCL-1 ([3]; as assigned in running text): 2979
MIC [1, 4]: < 0.1 µM
IC50 ([2]; HEK293, MTT, as assigned in running text, read-out: IC50, human embryonic kidney cells HEK-29): 257 µM
selectivity index SI, HEK-293 ([2]; as assigned in running text): 3516

COc1ccc2c(c1)c(/C=N/NS(=O)(=O)c1ccccc1)cn2C [5b, N’-[(E)-(5-methoxy-1-methyl-1H-indol-3-yl)methylidene]benzenesulfonohydrazide]
MIC [1, 8]: 0.2027 µM (≈ 0.0696 µg/mL)
MIC [1, 4]: < 0.4 µM

Cc1nnsc1C(=O)N/N=C/c1c(Cl)c2ccccc2oc1=O [3a, N’-[(E)-(4-chloro-2-oxo-2H-1-benzopyran-3-yl)methylidene]-4-methyl-1,2,3-thiadiazole-5-carbohydrazide]
MIC [1, 8]: 0.3914 µM (≈ 0.137 µg/mL)
MIC [1, 4]: < 0.4 µM

O=[N+]([O-])c1ccccc1/C=N/NS(=O)(=O)c1ccccc1 [5f, N’-[(E)-(2-nitrophenyl)methylidene]benzenesulfonohydrazide]
MIC [1, 4]: 0.305 µM (≈ 0.0932 µg/mL)

N’-[(E)-(3-hydroxy-4-methoxyphenyl)methylidene]benzenesulfonohydrazide [5h]
MIC [1, 8]: 0.3203 µM

NNC(=O)c1ccncc1 [INH, isoniazid, reference compound]
MIC [1, 4]: 0.0343 µM (≈ 0.0047 µg/mL)

O=S(=O)(N/N=C/C=C/c1ccccc1)c1ccccc1 [5k, N’-[(1E,2E)-3-phenylprop-2-en-1-ylidene]benzenesulfonohydrazid]
selectivity index SI, CCL-1 ([3]; as assigned in running text): 2216
MIC [1, 4]: < 0.1 µM
selectivity index SI, HEK-293 ([2]; as assigned in running text): 3380
selectivity indices (SI) [2]: > 1000

Cc1nnsc1C(=O)N/N=C/c1c[nH]c2ccc(OCc3ccccc3)cc12 [3c, N’-((E)-[5-(benzyloxy)-1H-indol-3-yl]methylidene)-4-methyl-1,2,3-thiadiazole-5-carbohydrazide]
selectivity index SI, CCL-1 ([3]; as assigned in running text): 4093
selectivity index SI, HEK-293 ([2]; as assigned in running text): 2242

COc1ccc2[nH]cc(/C=N/NS(=O)(=O)c3ccccc3)c2c1 [5e, N’-[(E)-(5-methoxy-1H-indol-3-yl)methylidene]benzenesulfonohydrazide]
MIC [1, 4]: 0.165 µM (≈ 0.0542 µg/mL)

O=S(=O)(N/N=C/c1ccc(Cl)cc1)c1ccccc1 [5i, N’-[(E)-(4-chlorophenyl)methylidene]benzenesulfonohydrazide]
IC50 [3, 5]: 131 ± 11.4 µM
MIC [1, 6]: 0.147 µM (≈ 0.0434 µg/mL)
IC50 [2, 7]: 100 ± 9.3 µM

COc1ccc(/C=N/NS(=O)(=O)c2ccccc2)cc1OC [5j, N’-[(E)-(3,4-dimethoxyphenyl)methylidene]benzenesulfonohydrazide]
IC50 [3, 5]: 83.5 ± 7 µM
MIC [1, 6]: 0.321 µM (≈ 0.103 µg/mL)
IC50 [2, 7]: 47.4 ± 6.8 µM
